Data published in ChEMBL document CHEMBL3885881, “DrugMatrix”.

Species on record: Rattus norvegicus
Assay: DrugMatrix - Regimen: Daily Repeat
Format: toxicity, organism-based, Sprague-Dawley
Parameters: regimen Daily Repeat, gender Male, age 6-8 weeks
Conditions: in vivo, po, route oral GAVAGE, vehicle .5 % CMC; for ABSOLUTE BASOPHIL / ABSOLUTE EOSINOPHIL / ABSOLUTE LYMPHOCYTE / ABSOLUTE MONOCYTE / ABSOLUTE SEGMENTED NEUTROPHIL / BASOPHIL / EOSINOPHIL / ERYTHROCYTE COUNT / HEMATOCRIT / HEMOGLOBIN / LEUKOCYTE COUNT / LYMPHOCYTE / MEAN CORPUSCULAR HEMOGLOBIN / MEAN CORPUSCULAR HEMOGLOBIN CONCENTRATION / MEAN CORPUSCULAR VOLUME / MONOCYTE / NEUTROPHIL / NUCLEATED RED BLOOD CELLS / PLATELET COUNT: tissue Blood; for ALANINE AMINOTRANSFERASE / ALBUMIN / ALKALINE PHOSPHATASE / ASPARTATE AMINOTRANSFERASE / BLOOD UREA NITROGEN / CARBON DIOXIDE / CHLORIDE / CHOLESTEROL / CREATINE PHOSPHOKINASE / CREATININE / GLUCOSE / LACTATE DEHYDROGENASE / LIPASE / PHOSPHORUS / POTASSIUM / SODIUM / TOTAL BILIRUBIN / TOTAL PROTEIN / URIC ACID: tissue Plasma
[1] = 12 mg/kg, 72 h, dose level High, time 3 day
[2] = 12 mg/kg, 120 h, dose level High, time 5 day
[3] = […], 72 h, dose 1.2 mg/Kg, dose level Low, time 3 day
[4] = […], 120 h, dose 1.2 mg/Kg, dose level Low, time 5 day

N[C@@H](Cc1ccc(N(CCCl)CCCl)cc1)C(=O)O
ABSOLUTE BASOPHIL [1]: 0 CELLS/uL | ABSOLUTE EOSINOPHIL [1]: 202.33 CELLS/uL | ABSOLUTE LYMPHOCYTE [1]: 10252.33 CELLS/uL | ABSOLUTE MONOCYTE [1]: 0 CELLS/uL | ABSOLUTE SEGMENTED NEUTROPHIL [1]: 1345.33 CELLS/uL | BASOPHIL [1]: 0% | EOSINOPHIL [1]: 1.67% | ERYTHROCYTE COUNT [1]: 5.67 x10E6/uL | HEMATOCRIT [1]: 35.43% | HEMOGLOBIN [1]: 13.33 G/DL | LEUKOCYTE COUNT [1]: 11.8 x10E3/uL | LYMPHOCYTE [1]: 86.67% | MEAN CORPUSCULAR HEMOGLOBIN [1]: 23.57 pg | MEAN CORPUSCULAR HEMOGLOBIN CONCENTRATION [1]: 37.63 G/DL | MEAN CORPUSCULAR VOLUME [1]: 62.57 fL | MONOCYTE [1]: 0% | NEUTROPHIL [1]: 11.67% | NUCLEATED RED BLOOD CELLS [1]: 0 /100WBC | PLATELET COUNT [1]: 1376 x10E3/uL | ALANINE AMINOTRANSFERASE [1]: 52 u/L | ALBUMIN [1]: 4.27 G/DL | ALKALINE PHOSPHATASE [1]: 346 u/L | ASPARTATE AMINOTRANSFERASE [1]: 88.33 u/L | BLOOD UREA NITROGEN [1]: 15 mg/dL | CARBON DIOXIDE [1]: 25.67 mmol/L | CHLORIDE [1]: 108.33 MEQ/L | CHOLESTEROL [1]: 69.67 mg/dL | CREATINE PHOSPHOKINASE [1]: 205 u/L | CREATININE [1]: 0.14 mg/dL | GLUCOSE [1]: 177 mg/dL | LACTATE DEHYDROGENASE [1]: 85.33 u/L | LIPASE [1]: 8.33 u/L | PHOSPHORUS [1]: 14 mg/dL | POTASSIUM [1]: 6.75 MEQ/L | SODIUM [1]: 147.33 MEQ/L | TOTAL BILIRUBIN [1]: 0.17 mg/dL | TOTAL PROTEIN [1]: 5.9 G/DL | URIC ACID [1]: 1.93 mg/dL | ABSOLUTE BASOPHIL [2]: 0 CELLS/uL | ABSOLUTE EOSINOPHIL [2]: 270.33 CELLS/uL | ABSOLUTE LYMPHOCYTE [2]: 13398.33 CELLS/uL | ABSOLUTE MONOCYTE [2]: 0 CELLS/uL | ABSOLUTE SEGMENTED NEUTROPHIL [2]: 1364.67 CELLS/uL | BASOPHIL [2]: 0% | EOSINOPHIL [2]: 1.67% | ERYTHROCYTE COUNT [2]: 5.64 x10E6/uL | HEMATOCRIT [2]: 35.4% | HEMOGLOBIN [2]: 13.53 G/DL | LEUKOCYTE COUNT [2]: 15.03 x10E3/uL | LYMPHOCYTE [2]: 89.33% | MEAN CORPUSCULAR HEMOGLOBIN [2]: 24.03 pg | MEAN CORPUSCULAR HEMOGLOBIN CONCENTRATION [2]: 38.23 G/DL | MEAN CORPUSCULAR VOLUME [2]: 62.83 fL | MONOCYTE [2]: 0% | NEUTROPHIL [2]: 9% | NUCLEATED RED BLOOD CELLS [2]: 0 /100WBC | PLATELET COUNT [2]: 1253 x10E3/uL | ALANINE AMINOTRANSFERASE [2]: 43.33 u/L | ALBUMIN [2]: 4.17 G/DL | ALKALINE PHOSPHATASE [2]: 352 u/L | ASPARTATE AMINOTRANSFERASE [2]: 75.67 u/L | BLOOD UREA NITROGEN [2]: 16 mg/dL | CARBON DIOXIDE [2]: 26.67 mmol/L | CHLORIDE [2]: 101.67 MEQ/L | CHOLESTEROL [2]: 68.67 mg/dL | CREATINE PHOSPHOKINASE [2]: 312.67 u/L | CREATININE [2]: 0.24 mg/dL | GLUCOSE [2]: 170.67 mg/dL | LACTATE DEHYDROGENASE [2]: 98.33 u/L | LIPASE [2]: 8 u/L | PHOSPHORUS [2]: 13.23 mg/dL | POTASSIUM [2]: 6.07 MEQ/L | SODIUM [2]: 145.27 MEQ/L | TOTAL BILIRUBIN [2]: 0.2 mg/dL | TOTAL PROTEIN [2]: 5.97 G/DL | URIC ACID [2]: 1.5 mg/dL | ABSOLUTE BASOPHIL [3]: 0 CELLS/uL | ABSOLUTE EOSINOPHIL [3]: 212 CELLS/uL | ABSOLUTE LYMPHOCYTE [3]: 11254.33 CELLS/uL | ABSOLUTE MONOCYTE [3]: 0 CELLS/uL | ABSOLUTE SEGMENTED NEUTROPHIL [3]: 1000.33 CELLS/uL | BASOPHIL [3]: 0% | EOSINOPHIL [3]: 1.67% | ERYTHROCYTE COUNT [3]: 5.5 x10E6/uL | HEMATOCRIT [3]: 35.4% | HEMOGLOBIN [3]: 13.5 G/DL | LEUKOCYTE COUNT [3]: 12.47 x10E3/uL | LYMPHOCYTE [3]: 90.33% | MEAN CORPUSCULAR HEMOGLOBIN [3]: 24.53 pg | MEAN CORPUSCULAR HEMOGLOBIN CONCENTRATION [3]: 38.13 G/DL | MEAN CORPUSCULAR VOLUME [3]: 64.3 fL | MONOCYTE [3]: 0% | NEUTROPHIL [3]: 8% | NUCLEATED RED BLOOD CELLS [3]: 0 /100WBC | PLATELET COUNT [3]: 1333.67 x10E3/uL | ALANINE AMINOTRANSFERASE [3]: 50 u/L | ALBUMIN [3]: 4.43 G/DL | ALKALINE PHOSPHATASE [3]: 430.67 u/L | ASPARTATE AMINOTRANSFERASE [3]: 84.33 u/L | BLOOD UREA NITROGEN [3]: 15.67 mg/dL | CARBON DIOXIDE [3]: 24 mmol/L | CHLORIDE [3]: 105.67 MEQ/L | CHOLESTEROL [3]: 66.67 mg/dL | CREATINE PHOSPHOKINASE [3]: 180.33 u/L | CREATININE [3]: 0.21 mg/dL | GLUCOSE [3]: 171.33 mg/dL | LACTATE DEHYDROGENASE [3]: 164 u/L | LIPASE [3]: 8.33 u/L | PHOSPHORUS [3]: 13.1 mg/dL | POTASSIUM [3]: 6.13 MEQ/L | SODIUM [3]: 147.47 MEQ/L | TOTAL BILIRUBIN [3]: 0.2 mg/dL | TOTAL PROTEIN [3]: 6.33 G/DL | URIC ACID [3]: 2.23 mg/dL | ABSOLUTE BASOPHIL [4]: 0 CELLS/uL | ABSOLUTE EOSINOPHIL [4]: 46.67 CELLS/uL | ABSOLUTE LYMPHOCYTE [4]: 6013.67 CELLS/uL | ABSOLUTE MONOCYTE [4]: 20.33 CELLS/uL | ABSOLUTE SEGMENTED NEUTROPHIL [4]: 619.33 CELLS/uL | BASOPHIL [4]: 0% | EOSINOPHIL [4]: 0.67% | ERYTHROCYTE COUNT [4]: 5.37 x10E6/uL | HEMATOCRIT [4]: 34.83% | HEMOGLOBIN [4]: 13.07 G/DL | LEUKOCYTE COUNT [4]: 6.7 x10E3/uL | LYMPHOCYTE [4]: 89.67% | MEAN CORPUSCULAR HEMOGLOBIN [4]: 24.33 pg | MEAN CORPUSCULAR HEMOGLOBIN CONCENTRATION [4]: 37.53 G/DL | MEAN CORPUSCULAR VOLUME [4]: 64.87 fL | MONOCYTE [4]: 0.33% | NEUTROPHIL [4]: 9.33% | NUCLEATED RED BLOOD CELLS [4]: 0 /100WBC | PLATELET COUNT [4]: 1151 x10E3/uL | ALANINE AMINOTRANSFERASE [4]: 47 u/L | ALBUMIN [4]: 4.33 G/DL | ALKALINE PHOSPHATASE [4]: 273.67 u/L | ASPARTATE AMINOTRANSFERASE [4]: 74.67 u/L | BLOOD UREA NITROGEN [4]: 14.33 mg/dL | CARBON DIOXIDE [4]: 29.33 mmol/L | CHLORIDE [4]: 101.67 MEQ/L | CHOLESTEROL [4]: 74.67 mg/dL | CREATINE PHOSPHOKINASE [4]: 206 u/L | CREATININE [4]: 0.18 mg/dL | GLUCOSE [4]: 137 mg/dL | LACTATE DEHYDROGENASE [4]: 89.33 u/L | LIPASE [4]: 8.67 u/L | PHOSPHORUS [4]: 11.6 mg/dL | POTASSIUM [4]: 5.85 MEQ/L | SODIUM [4]: 147.57 MEQ/L | TOTAL BILIRUBIN [4]: 0.2 mg/dL | TOTAL PROTEIN [4]: 6.17 G/DL | URIC ACID [4]: 0.8 mg/dL
